Measured values taken from US11369565B2, “Amino-pyrimidine skeletal muscle modulators” (Cytokinetics, Inc., priority 2010, dated 2022).

System: rabbit skeletal myofibrils (approximately 90% fast fibers)
Assay: Activation of fast skeletal myofibrils (PUMA coupled-enzyme ATPase assay at pCa25)
Assay type: biochemical
Conditions: concentration at which the compound increased the enzymatic activity by 40%; calcium at pCa25; PM12 buffer pH 6.8
How it was run: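 In pH 6.8 PM12 buffer (12 mM Pipes, 2 mM MgCl2, 1 mM DTT), ADP from myosin regenerated via pyruvate kinase/lactate dehydrogenase, with absorbance change at 340 nm from NADH oxidation as read-out. Calcium set at pCa25; Triton-washed rabbit skeletal myofibrils (about 90% fast fibres) used.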

Row | Mean AC1.4 | SMILES
1 | B (B=1-10 uM) | CC(C)(Nc1ncc(-c2cc(C(N)=O)no2)cn1)c1ncccc1Cl [5-(2-{[1-(3-chloro(2-pyridyl))-isopropyl]amino}pyrimidin-5-yl)isoxazole-3-carboxamide]
2 | C (C=10-20 uM) | CC(C)(Nc1ncc(-c2ncc(CNC(=O)[C@@H]3CCCN3)s2)cn1)c1ncccc1F [((2S)pyrrolidin-2-yl)-N-{[2-(2-{[1-(3-fluoro(2-pyridyl))-isopropyl]amino}pyrimidin-5-yl)(1,3-thiazol-5-yl)]methyl}carboxamide]
3 | B (B=1-10 uM) | N#Cc1n[nH]c2cc(F)c(-c3cnc(NC4(c5ncccc5F)CCC4)nc3)cc12 [6-fluoro-5-(2-{[(3-fluoro(2-pyridyl))cyclobutyl]amino}pyrimidin-5-yl)-1H-indazole-3-carbonitrile]
4 | A (A=<1 uM) | NC(=O)c1ccc(F)c(-c2cnc(NC3(c4ncccc4F)CCC3)nc2)c1 [4-fluoro-3-(2-{[(3-fluoro(2-pyridyl))cyclobutyl]amino}pyrimidin-5-yl)benzamide]
5 | B (B=1-10 uM) | CC(C)(Nc1ncc(-n2cc(CNC(=O)CCN)cn2)cn1)c1ncccc1Cl [3-amino-N-{[1-(2-{[1-(3-chloro(2-pyridyl))-isopropyl]amino}pyrimidin-5-yl)pyrazol-4-yl]methyl}propanamide]
6 | D (D=>20 uM) | CC(C)(Nc1ncc(-c2ncno2)cn1)c1ncccc1Cl [[1-(3-chloro(2-pyridyl))-isopropyl](5-(1,2,4-oxadiazol-5-yl)pyrimidin-2-yl)amine]
7 | D (D=>20 uM) | O=C(O)c1nc2cnc(NCC3(c4ncccc4F)CCC3)nc2s1 [5-({[(3-fluoro-2-pyridyl)cyclobutyl]methyl}amino)-1,3-thiazolo[5,4-d]pyrimidine-2-carboxylic acid]
8 | B (B=1-10 uM) | CC(C)(CNc1ncc(-c2cc(C(N)=O)ccc2F)cn1)c1ncccc1F [4-fluoro-3-(2-{[2-(3-fluoro(2-pyridyl))-2-methylpropyl]amino}pyrimidin-5-yl)benzamide]
9 | A (A=<1 uM) | COC(=O)c1ccc(O)c(-c2cnc(NC[C@]3(c4ncccc4F)C[C@H](F)C3)nc2)c1 [methyl 3-[2-({[3-fluoro-1-(3-fluoro(2-pyridyl))cyclobutyl]methyl)amino)pyrimidin-5-yl]-4-hydroxybenzoate]
10 | B (B=1-10 uM) | O=C(Nc1nncs1)c1cnc(NCC2(c3ncccc3F)CCC2)nc1 [[2-({[(3-fluoro(2-pyridyl))cyclobutyl]methyl}amino)pyrimidin-5-yl]-N-(1,3,4-thiadiazol-2-yl)carboxamide]
11 | B (B=1-10 uM) | Nc1ccc(-c2cnc(NC[C@]3(c4ncccc4F)C[C@H](F)C3)nc2)nn1 [[5-(6-aminopyridazin-3-yl)pyrimidin-2-yl]{[3-fluoro-1-fluoro(2-pyridyl))cyclobutyl]methyl}amine]
12 | D (D=>20 uM) | CC(C)(Nc1ncc(-n2cc(C(=O)NCCC(N)=O)cn2)cn1)c1ncccc1Cl [N-(2-carbamoylethyl)[1-(2-{[1-(3-chloro)(2-pyridyl))-isopropyl]amino}pyrimidin-5-yl)pyrazol-4-yl]carboxamide]
13 | D (D=>20 uM) | Cc1nc(NC[C@]2(c3ncccc3F)C[C@H](F)C2)ncc1-c1ccc(C#N)cc1 [4-[2-({[3-fluoro-1-(3-fluoro(2-pyridyl))cyclobutyl]methyl}amino)-4-methylpyrimidin-5-yl]benzenecarbonitrile]
14 | D (D=>20 uM) | Oc1ncc(-c2cnc(NC[C@]3(c4ncccc4F)C[C@H](F)C3)nc2)cn1 [5-[2-({[3-fluoro-1-(3-fluoro(2-pyridyl))cyclobutyl]methyl}amino)pyrimidin-5-yl]pyrimidin-2-ol]
15 | C (C=10-20 uM) | O=C(Nc1ccn[nH]1)c1cnc(NCC2(c3ncccc3F)CCC2)nc1 [[2-({[(3-fluoro(2-pyridyl))cyclobutyl]methyl}amino)pyrimidin-5-yl]-N-pyrazol-5-ylcarboxamide]
16 | D (D=>20 uM) | CCOC(=O)c1cnn(-c2cnc(NCC3(c4ncccc4F)CCC3)nc2)c1 [ethyl 1-[2-({[(3-fluoro-2-pyridyl)cyclobutyl]methyl}amino)pyrimidin-5-yl] pyrazole-4-carboxylate]
17 | D (D=>20 uM) | Fc1cccnc1C1(Nc2ncc3ccccc3n2)CCC1 [[(3-fluoro(2-pyridyl))cyclobutyl]quinazolin-2-ylamine]
18 | C (C=10-20 uM) | CC(C)(Nc1nccc(-c2nccs2)n1)c1cccc(OC(F)F)n1 [{1-[6-(difluoromethoxyl)(2-pyridyl)]-isopropyl)(4-(1,3-thiazol-2-yl)]pyrimidin-2-yl)amine]
19 | B (B=1-10 uM) | CNC(=O)c1ccn(-c2cnc(NC[C@]3(c4ncccc4F)C[C@H](F)C3)nc2)c1 [{1-[2-({[3-fluoro-1-(3-fluoro(2-pyridyl))cyclobutyl]methyl}amino)pyrimidin-5-yl]pyrro1-3-yl}-N-methylcarboxamide]
20 | D (D=>20 uM) | Oc1ccc(-c2cnc(NC[C@]3(c4ncccc4F)C[C@H](F)C3)nc2)cn1 [5-[2-({[3-fluoro-1-(3-fluoro(2-pyridyl))cyclobutyl]methyl}amino)pyrimidin-5-yl]pyridin-2-ol]
21 | D (D=>20 uM) | COc1cc(-c2cnc(NC[C@]3(c4ncccc4F)C[C@H](F)C3)nc2)nc(OC)n1 [[5-(2,6-dimethoxypyrimidin-4-yl)pyrimidin-2-yl]{[3-fluoro-1-(3-fluoro(2-pyridyl))cyclobutyl]methyl}amine]

Further lines, the compound ahead of its results:

Row | SMILES | Mean AC1.4
22 | NC(=O)Cc1cnc(-c2cnc(NC[C@]3(c4ncccc4F)C[C@H](F)C3)nc2)s1 [2-{2-[2-({[3-fluoro-1-(3-fluoro(2-pyridyl))cyclobutyl]methyl)amino)pyrimidin-5-yl]-1,3-thiazol-5-yl}acetamide] | B (B=1-10 uM)
23 | CC(C)(Nc1ncc(-c2cn3ccc(C(N)=O)cc3n2)cn1)c1ncccc1Cl [2-(2-{[1-(3-chloro(2-pyridyl))-isopropyl]amino}pyrimidin-5-yl)-4-hydroimidazo[1,2-a]pyridine-7-carboxamide] | D (D=>20 uM)
24 | CC(C)(C)OC(=O)NCCC(=O)NCc1cnn(-c2cnc(NC(C)(C)c3ncccc3Cl)nc2)c1 [3-[(tert-butoxy)carbonylamino]-N-{[1-(2-{[1-(3-chloro(2-pyridyl))-isopropyl]amino}pyrimidin-5-yl)pyrazol-4-yl)]methyl}propanamide] | D (D=>20 uM)
25 | CC(C)(Nc1ncc(-c2nc(C(N)=O)cs2)cn1)c1ncccc1F [2-(2-{[1-(3-fluoro(2-pyridyl))-isopropyl]amino}pyrimidin-5-yl)-1,3-thiazole-4-carboxamide] | D (D=>20 uM)
26 | CC(C)(Nc1ncc(-c2ncc(C(N)=O)s2)cn1)c1ncccc1Cl [2-(2-{[1-(3-chloro(2-pyridyl))-isopropyl]amino}pyrimidin-5-yl)-1,3-thiazole-5-carboxamide] | B (B=1-10 uM)
27 | CC(C)(c1ncccc1S(C)(=O)=O)N(O)c1ncc(-c2cccc(C(N)=O)c2)cn1 [3-[2-({1-methyl-1-[3-(methylsulfonyl)(2-pyridyl)]ethyl}(hydroxyamino))pyrimidin-5-yl]benzamide] | D (D=>20 uM)
28 | CC(C)(C)OC(=O)NCc1cnc(-c2cnc(NCC3(c4ncccc4Cl)CCC3)nc2)s1 [(tert-butoxy)-N-({2-[2-({[(3-chloro(2-pyridyl))cyclobutyl]methyl}amino)pyrimidin-5-yl](1,3-thiazol-5-yl)}methyl)carboxamide] | A (A=<1 uM)
29 | NC(=O)c1cccc(-c2cnc(NCC3(c4ncccc4F)CCC3)nc2)c1 [3-[2-({[(3-fluoro-2-pyridyl)cyclobutyl]methyl}amino)pyrimidin-5-yl]benzamide] | A (A=<1 uM)
30 | CC(C)(CNc1ncc(C(=O)NC2(C(N)=O)CC2)cn1)c1ccc(F)cc1 [1-[(2-{[2-(4-fluorophenyl)-2-methylpropyl]amino}pyrimidin-5-yl)carbonylamino] cyclopropanecarboxamide] | D (D=>20 uM)
31 | CC(C)(Nc1ncc(-c2cccc(C(N)=O)c2)cn1)c1ncccc1Cl [3-(2-{[1-(3-chloro(2-pyridyl))-isopropyl]amino}pyrimidin-5-yl)benzamide] | A (A=<1 uM)
32 | N#Cc1ccnc(-c2cnc(NC[C@]3(c4ncccc4F)C[C@H](F)C3)nc2)n1 [2-[2-({[3-fluoro-1-(3-fluoro(2-pyridyl))cyclobutyl]methyl}amino)pyrimidin-5-yl]pyrimidine-4-carbonitrile] | B (B=1-10 uM)
33 | CC(C)(CNc1ncc(-c2cccc(C(N)=O)c2)cn1)c1ncccc1Cl [3-(2-{[2-(3-chloro(2-pyridyl))-2-methylpropyl]amino}pyrimidin-5-yl)benzamide] | A (A=<1 uM)
34 | O=C(O)c1cnc(NC2(c3ncccc3F)CCC2)nc1C(F)(F)F [2-{[(3-fluoro(2-pyridyl))cyclobutyl]amino}-4-(trifluoromethyl)pyrimidine-5-carboxylic acid] | D (D=>20 uM)
35 | CC(C)(CNc1ncc(-c2cccc(C(N)=O)c2)cn1)c1ncccc1F [3-(2-{[2-(3-fluoro(2-pyridyl))-2-methylpropyl]amino}pyrimidin-5-yl)benzamide] | B (B=1-10 uM)
36 | N#Cc1ccnc(NC2(c3ccc(F)cc3)CCC2)n1 [2-{[(4-fluorophenyl)cyclobutyl]amino} pyrimidine-4-carbonitrile] | D (D=>20 uM)
37 | CC(C)(Nc1ncc(-c2cc(C#N)ccn2)cn1)c1ncccc1Cl [2-(2-{[1-(3-chloro(2-pyridyl))-isopropyl]amino}pyrimidin-5-yl)pyridine-4-carbonitrile] | C (C=10-20 uM)
38 | CC(C)[C@@H](Nc1ncc(-c2ncc(C(N)=O)s2)cn1)c1ncccc1Cl [2-(2-{[(1R)-1-(3-chloro(2-pyridyl))-2-methylpropyl]amino}pyrimidin-5-yl)-1,3-thazole-5-carboxamide] | D (D=>20 uM)
